Biological target: T1, acetylcholine muscarinic M1 receptor (Homo sapiens, UniProt P11229)
T1 construct: expressed in transfected cells; host or cells: CHOnfat (CHO cells; also called CHOK1/hM1)
T1 sequence (P11229 1-460): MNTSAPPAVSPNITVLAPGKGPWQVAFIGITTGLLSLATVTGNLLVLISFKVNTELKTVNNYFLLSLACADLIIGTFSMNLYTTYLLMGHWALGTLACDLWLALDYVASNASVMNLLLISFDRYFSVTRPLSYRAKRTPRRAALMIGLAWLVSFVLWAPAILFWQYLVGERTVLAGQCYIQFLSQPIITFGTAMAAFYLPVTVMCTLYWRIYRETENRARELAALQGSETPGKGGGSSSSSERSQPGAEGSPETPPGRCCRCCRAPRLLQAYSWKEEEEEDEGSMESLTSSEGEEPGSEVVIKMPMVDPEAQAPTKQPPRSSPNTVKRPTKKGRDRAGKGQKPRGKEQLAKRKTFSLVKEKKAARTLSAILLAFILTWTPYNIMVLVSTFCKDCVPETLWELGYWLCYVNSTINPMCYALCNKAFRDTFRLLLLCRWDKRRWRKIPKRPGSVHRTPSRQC
Test: Muscarinic FLIPR intracellular calcium assay for M1 positive allosteric modulator activity in CHOnfat/hM1 cells
Assay type: cell-based
Settings: 4 min preincubation, then EC20 acetylcholine (3 nM final), calculated from FLIPR values, read-out: IP Value (inflection point)
Protocol: The assay studies the effect of one or several concentrations of test compounds on basal or acetylcholine-stimulated Ca^2+ levels using FLIPR.
Compounds are prepared and subjected to a preincubation period of 4 min. Thereafter, a single EC20 concentration of acetylcholine is added to each well (3 nM final). The intracellular Ca^2+ level of each sample is measured and compared to an acetylcholine control to determine any modulatory activity.
Cells: CHOnfat/hM1, hM2, hM3 or hM4 cells are plated 24 hr before the assay at a density of 18,000 cells/well (100 μL) in a 384 well plate. CHOnfat/hM1 and CHOnfat/hM3 Growth Medium: 90% DMEM (Hi Glucose); 10% HI FBS; 2 mM L-glutamine; 0.1 mM NEAA; Pen-Strep; and 1 mg/ml Geneticin, are added. For M2Gqi5CHOnfat and M4Gqi5CHOnfat cells, an additional 600 ug/ml hygromycin is added.
Equipment: 384 well plate, 120 μL addition plate; 96-well Whatman 2 ml Uniplate Incubator, 37° C., 5% CO2; Skatron EMBLA-384 Plate Washer; Multimek Pipetting System; Genesis Freedom 200 System; Mosquito System; Temo Nanoliter Pipetting System; and FLIPR^384 Fluorometric Imaging Plate Reader System are used.
Buffers. Assay Buffer: Hanks Balanced Salt Solution, with 20 mM Hepes, 2.5 mM Probenecid (Sigma P-8761) first dissolved in 1 N NaOH, 1% Bovine Serum Albumin (Sigma A-9647). Dye Loading Buffer: Assay Buffer plus 1% Fetal Bovine Serum and Fluo-4AM/Pluronic Acid Mixture. 2 mM Fluo-4AM ester stock in DMSO (Molecular Probes F-14202) Concentration of 2 μM in buffer for a final concentration of 1 μM in Assay. 20% Pluronic Acid Solution stock, with concentration of 0.04% in Buffer, 0.02% in Assay.
65 μL of 2 mM Fluo-4AM are mixed with 130 μL of 20% Pluronic Acid. The resulting solution and 650 μL FBS is added to the assay buffer for a total volume of 65 mL. Positive Controls: 4-Br-A23187: 10 mM in DMSO; final concentration 10 μM. Acetylcholine: 10 mM in water, working stock at both 20 μM and 30 μM in assay buffer, final concentration of 10 μM. This is used to check the maximum stimulation of the CHOK1/hM1 cells. 20 μM (2×) acetylcholine is added in the preincubation part of the assay, and the 30 μM (3×) stock is added in the second part. (EC20)Acetylcholine: 10 mM in water, working stock of 9 nM (3×), and final concentration in assay is 3 nM. This is used after the preincubation with test compounds. Addition of the EC20 Acetylcholine to each well with a test compound will ascertain any modulator activity. 24 wells contain 3 nM Acetylcholine alone as a control.
Determining Activity of Putative Compounds:
Screening Plate Compounds are titrated in 96-well plates (columns 2-11), 100% DMSO, started at a concentration of 15 mM (150× stock concentration), and 3-fold serial dilutions using Genesis Freedom200 System. Four 96-well plates are combined into a 384-well plate using Mosquito Nanoliter Pipetting System by transferring 1 μl of serial diluted compounds to each well, and 1 mM acetylcholine (100× stock concentration) were added as a control. Using Temo, 49 μl assay buffer is added to each well of the 384-well plate right before assay.
In a 96-well Whatman 2 ml Uniplate, 9 nM Acetylcholine (3×) is pipetted into wells corresponding to the screening compounds, and into control wells. The 30 μM acetylcholine control (3×) is added into control wells, and the 3× agonist plate is transferred into a 384 well plate.
Cells are washed three times with 100 μL of buffer, leaving 30 μL of buffer in each well. Using Multimek, 30 μL of Dye Loading Buffer is added into each well and incubated at 37° C., 5% CO2 for up to one hr.
After 60 min, the cells are washed three times with 100 μL of buffer, leaving 30 μL of buffer in each well. The cell plate, screening plate, and agonist addition plates are placed on the platform in the FLIPR and the door closed. A signal test to check background fluorescence and basal fluorescence signal is performed. Laser intensity is adjusted if necessary. […]

Structure (SMILES)	EC50 [µM]
CC1CCOCC1n1nc2c3ccccc3n(Cc3ccc(-n4cccn4)cc3)nc-2c1=O (racemic) [Example 71, (±)-2-[cis,trans-4-methyltetrahydro-2H-pyran-3-yl]-5-[4-(1H-pyrazol-1-yl)benzyl]-2,5-dihydro-3H-pyrazolo[4,3-c]cinnolin-3-one]	0.089
O=c1c2nn(Cc3ccc(-n4cccn4)cc3)c3c(Cl)cccc3c-2nn1[C@H]1CCOC[C@@H]1O (single isomer, unassigned) [Example 62, 6-Chloro-2-(trans-3-hydroxytetrahydro-2H-pyran-4-yl)-5-[4-(1H-pyrazol-1-yl)benzyl]-2,5-dihydro-3H-pyrazolo[4,3-c]cinnolin-3-one]	0.021
O=c1c2nn(Cc3ccc(-n4cccn4)cc3)c3c(Cl)cccc3c-2nn1[C@H]1CCOC[C@@H]1O (single isomer, unassigned) [Example 63, 6-Chloro-2-(trans-3-hydroxytetrahydro-2H-pyran-4-yl)-5-[4-(1H-pyrazol-1-yl)benzyl]-2,5-dihydro-3H-pyrazolo[4,3-c]cinnolin-3-one]	0.593
C[C@H]1CCOC[C@@H]1n1nc2c3ccccc3n(Cc3ccc(-n4cccn4)cc3)nc-2c1=O (single isomer, unassigned) [Example 72, trans-2-[4-Methyltetrahydro-2H-pyran-3-yl]-5-[4-(1H-pyrazol-1-yl)benzyl]-2,5-dihydro-3H-pyrazolo[4,3-c]cinnoline-3-one]	0.047
C[C@@H]1CCOC[C@@H]1n1nc2c3ccccc3n(Cc3ccc(-n4cccn4)cc3)nc-2c1=O (single isomer, unassigned) [Example 73, cis-2-[4-Methyltetrahydro-2,1-pyran-3-yl]-5-[4-(1H-pyrazol-1-yl)benzyl]-2,5-dihydro-3H-pyrazolo[4,3-c]cinnoline-3-one]	0.771
Cc1ccccc1-n1nc2c3ccccc3n(Cc3ccc(Br)cn3)nc-2c1=O [Example 21, 5-[(5-Bromopyridin-2-yl)methyl]-2-(2-methylphenyl)-2,5-dihydro-3H-pyrazolo[4,3-c]cinnolin-3-one]	2.86
Cc1ccccc1-n1nc2c3ccccc3n(Cc3ccc(-c4cnn(C)c4)nc3)nc-2c1=O [Example 25, 2-(2-Methylphenyl)-5-{[6-(1-methyl-1H-pyrazol-4-yl)pyridine-3-yl]methyl}-2,5-dihydro-3H-pyrazolo[4,3-c]cinnolin-3-one]	0.144
O=c1c2nn(Cc3ccc(-n4cccn4)cc3)c3c(Cl)cccc3c-2nn1[C@@H]1CCCC[C@H]1O [Example 61]	0.042
Cc1ccccc1-n1nc2c3ccccc3n(Cc3ccc(N4CCOCC4)nc3)nc-2c1=O [Example 81, 2-(2-Methylphenyl)-5-{[6-(morpholin-4-yl)pyridine-3-yl]methyl}-2,5-dihydro-3H-pyrazolo[4,3-c]cinnolin-3-one]	1.37
Cc1nc(F)ccc1-n1nc2c3ccccc3n(Cc3ccc(-c4cnn(C)c4)nc3)nc-2c1=O [Example 86, 2-(6-Fluoro-2-methylpyridin-3-yl)-5-{[6-(1-methyl-1H-pyrazol-4-yl)pyridin-3-yl]methyl}-2,5-dihydro-3H-pyrazolo[4,3-c]cinnolin-3-one]	0.225
Cc1ccc(-c2ccc(Cn3nc4c(=O)n(-c5cccc(C)c5C)nc-4c4ccccc43)cn2)cn1 [Example 90, 2-(2,3-Dimethylphenyl)-5-[(6′-methyl-2,3′-bipyridin-5-yl)methyl]-2,5-dihydro-3H-pyrazolo[4,3-c]cinnolin-3-one]	0.029

Next, values leading:

EC50 [µM]	Structure (SMILES)
0.636	C[C@H]1CCOC[C@@H]1n1nc2c3ccccc3n(Cc3ccc(-n4cccn4)cc3)nc-2c1=O (single isomer, unassigned) [Example 74]
0.158	C[C@@H]1CCOC[C@@H]1n1nc2c3ccccc3n(Cc3ccc(-n4cccn4)cc3)nc-2c1=O (single isomer, unassigned) [Example 75, cis-2-[4-Methyltetrahydro-2H-pyran-3-yl]-5-[4-(1H-pyrazol-1-yl)benzyl]-2,5-dihydro-3H-pyrazolo[4,3-c]cinnoline-3-one]
0.028	O=c1c2nn(Cc3ccc(-n4cccn4)cc3)c3ccccc3c-2nn1-c1ccccc1F [Example 1, 2-(2-Fluorophenyl)-5-{[4-(1H-pyrazol-1-yl)phenyl]methyl}-2,5-dihydro-3H-pyrazolo[4,3-c]cinnolin-3-one]
0.193	O=c1c2nn(Cc3ccc(-n4cccn4)cc3)c3ccccc3c-2nn1CC(O)CO (centres unmarked) [Example 11, 2-(2,3-Dihydroxypropyl)-5-[4-(1H-pyrazol-1-yl)benzyl]-2,5-dihydro-3H-pyrazolo[4,3-c]cinnolin-3-one]
0.014	N#Cc1cccc(F)c1-n1nc2c3ccccc3n(Cc3ccc(-n4cccn4)cc3)nc-2c1=O [Example 13, 3-Fluoro-2-(3-oxo-5-{[4-(1H-pyrazol-1-yl)phenyl]methyl}-3,5-dihydro-2H-pyrazolo[4,3-c]cinnolin-2-yl)benzonitrile]
0.748	Cc1ccccc1-n1nc2c3ccccc3n(Cc3ccc(-n4ccnc4)nc3)nc-2c1=O [Example 23, 5-{[6-(1H-Imidazol-1-yl)pyridine-3-yl]methyl}-2-(2-methylphenyl)-2,5-dihydro-3H-pyrazolo[4,3-c]cinnolin-3-one]

Source: patent US8486946B2, “Pyrazolo [4,3-c] cinnolin-3-one M1 receptor positive allosteric modulators” (Merck Sharp & Dohme Corp., priority 2009, dated 2013)
